Test results published in patent publication US8377974B2 (Millennium Pharmaceuticals, Inc., priority 2004, dated 2013).

Each molecule was assayed against T1, human plasma protein factor Xa (Homo sapiens, UniProt P00742) (assay: Factor Xa IC50 determination: cleavage of paranitroanilide substrate S-2765 in 96-well plates). Settings: fXa 1 nM, S-2765 100 μM, Tris buffered saline pH 7.4, room temperature.
T1 construct: measure proteolytic activity of the enzyme (factor Xa); purchased Haematologic Technologies (Essex Junction, Vt.); host or cells: human plasma
T1 sequence (P00742 235-488 limits assumed): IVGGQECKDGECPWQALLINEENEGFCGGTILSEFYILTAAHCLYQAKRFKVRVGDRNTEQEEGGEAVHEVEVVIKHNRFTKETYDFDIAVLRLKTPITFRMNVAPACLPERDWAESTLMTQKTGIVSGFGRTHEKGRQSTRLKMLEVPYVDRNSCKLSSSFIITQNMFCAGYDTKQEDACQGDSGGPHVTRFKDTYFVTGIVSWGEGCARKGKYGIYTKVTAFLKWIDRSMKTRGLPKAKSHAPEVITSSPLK
T1 sequence (P00742 41-179 partner limits assumed): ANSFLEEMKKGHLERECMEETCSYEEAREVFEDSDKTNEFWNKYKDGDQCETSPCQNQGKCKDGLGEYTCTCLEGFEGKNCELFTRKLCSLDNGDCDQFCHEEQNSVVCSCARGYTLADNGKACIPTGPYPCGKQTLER
Format: biochemical
From the text: This example illustrates methods for evaluating the compounds of the invention, along with results obtained for such assays. The in vitro and in vivo Factor Xa isoform activities of the inventive compounds can be determined by various procedures known in the art, such as a test for their ability to inhibit the activity of the Factor Xa isoform. […] The IC50 value is the concentration (in nM) of the compound required to provide 50% inhibition of Factor Xa isoform.
An in vitro assay for detecting and measuring inhibition activity against Factor Xa is as follows:
The substrate S-2765 (Z-D-Arg-Gly-Arg-pNA.HCl) was obtained from Diapharma (West Chester, Ohio).
The human plasma protein factor Xa was purchased from Haematologic Technologies (Essex Junction, Vt.).
All assays, which are performed in 96-well microtiter plates, measure proteolytic activity of the enzyme (factor Xa) by following cleavage of paranitroanilide substrate. The assay buffer used for proteolytic assays was Tris buffered saline (20 mM Tris, 150 mM NaCl, 5 mM CaCl2, 0.1% Bovine serum albumin (BSA), 5% Dimethly Sulfoxide (DMSO) pH 7.4). In a 96-well microtiter plate, inhibitor was serially diluted to give a range of concentrations from 0.01 nM to 10 μM (final). Duplicate sets of wells were assayed and control wells without inhibitor were included. Enzyme was added to each well, (fXa concentration=1 nM), the plate was shaken for 5 seconds and then incubated for 5 minutes at room temperature. S2765 was added (100 μM final) and the plate was shaken for 5 seconds (final liquid volume in each well was 200 μl). The degree of substrate hydrolysis was measured at 405 nm on a Thermomax plate reader (Molecular Devices, Sunnyvale, Calif.) for 2 minutes. The initial velocities (mOD/min), for each range of inhibitor concentrations, were fitted to a four parameter equation using Softmax data analysis software. The parameter C, derived from the resulting curve-fit, corresponded to the concentration for half maximal inhibition (IC50).
For `N=C(c1ccc(-c2nc(CNC(=O)c3ccc(Cl)s3)cs2)cc1)N1CCCC1` [Example 352, 5-Chloro-N-((2-(4-(imino(pyrrolidin-1-yl)methyl)phenyl)thiazol-4-yl)methyl)thiophene-2-carboxamide], the IC50 was at most 100 nM. `CCOC(=O)C1CCN(C(=N)c2ccc(-c3cc(CNC(=O)c4ccc(Cl)s4)on3)cc2)CC1` [Example 25, 1-{[4-(5-{[(5-Chloro-thiophene-2-carbonyl)-amino]-methyl}-isoxazol-3-yl)-phenyl]-imino-methyl}-piperidine-4-carboxylic acid ethyl ester] was tested, and the IC50 was at most 100 nM. Work on `CN1CCN=C1c1ccc(-c2cc(CNC(=O)c3ccc(Cl)s3)on2)cc1` [Example 22, 5-Chloro-thiophene-2-carboxylic acid {3-[4-(1-methyl-4,5-dihydro-1H-imidazol-2-yl)-phenyl]-isoxazol-5-ylmethyl}-amide] yielded an IC50 of at most 100 nM. `COC[C@H]1CCCN1C(=O)c1ccc(C2=NOC(CNC(=O)c3ccc(Cl)s3)C2)cc1` (stereo partly drawn) [Example 398] was tested, and the IC50 was 100 to 500 nM. `CN1CCN=C1c1ccc(C2=NOC(CNC(=O)c3ccc(Cl)s3)C2)cc1` (stereo not drawn) [Example 9, 5-Chloro-thiophene-2-carboxylic acid {3-[4-(1-methyl-4,5-dihydro-1H-imidazol-2-yl)-phenyl]-4,5-dihydro-isoxazol-5-ylmethyl}-amide] was tested, and the IC50 was at most 100 nM. In the case of `COc1ccc(CN(C)C)c(-c2ccc(C3=NOC(CNC(=O)c4ccc(Cl)s4)C3)cc2)c1` (stereo not drawn) [Example 202, 5-Chloro-thiophene-2-carboxylic acid [3-(2′-dimethylaminomethyl-5′-methoxy-biphenyl-4-yl)-4,5-dihydro-isoxazol-5-ylmethyl]-amide], the IC50 is reported as at least 500 nM. In the case of `O=C(NCC1CC(c2ccc(N3CCCCC3=O)cc2)=NO1)c1ccc(Cl)s1` (stereo not drawn) [Example 241, 5-Chloro-thiophene-2-carboxylic acid {3-[4-(2-oxo-piperidin-1-yl)-phenyl]-4,5-dihydro-isoxazol-5-ylmethyl}-amide], the IC50 is reported as 100 to 500 nM. `O=C(NCc1cc(-c2ccc(-c3cccnc3)cc2)no1)c1ccc(Cl)s1` [Example 192, 5-Chloro-thiophene-2-carboxylic acid [3-(4-pyridin-3-yl-phenyl)-isoxazol-5-ylmethyl]-amide] showed an IC50 of at least 500 nM. `C#CCN(C)C(=N)c1ccc(C2=NOC(CNC(=O)c3ccc(Cl)s3)C2)cc1` (stereo not drawn) [Example 13, 5-Chloro-thiophene-2-carboxylic acid {3-[4-(N-methyl-N-prop-2-ynyl-carbamimidoyl)-phenyl]-4,5-dihydro-isoxazol-5-ylmethyl}-amide] was tested, and the IC50 was 100 to 500 nM. `CN(C)C(=N)c1ccc(-c2cc(CNC(=O)c3ccc(Cl)s3)on2)c(N(C)C)c1` [Example 94, 5-Chloro-thiophene-2-carboxylic acid {3-[2-dimethylamino-4-(N,N-dimethyl-carbamimidoyl)-phenyl]-isoxazol-5-ylmethyl}-amide] gave an IC50 of at most 100 nM. In the case of `N=C(c1ccc(-c2cc(CNC(=O)c3ccc(Cl)s3)ccc2F)cc1)N1CCCC1` [Example 379, 5-Chloro-N-((3-(4-(imino(pyrrolidin-1-yl)methyl)phenyl)-4-fluorophenyl)methyl)thiophene-2-carboxamide], the IC50 is reported as at most 100 nM. In the case of `CCN(C)C(=N)c1ccc(C2=NOC(C)(CNC(=O)c3ccc(Cl)s3)C2)cc1` (stereo not drawn) [Example 64, 5-Chloro-thiophene-2-carboxylic acid {3-[4-(N-ethyl-N-methyl-carbamimidoyl)-phenyl]-5-methyl-4,5-dihydro-isoxazol-5-ylmethyl}-amide], the IC50 is reported as at most 100 nM. `N=C(c1ccc(-n2cc(CNC(=O)c3ccc(Cl)s3)nn2)c(F)c1)N1CCCCC1` [Example 323, 5-Chloro-N-((1-(2-fluoro-4-(imino(piperidin-1-yl)methyl)phenyl)-1H-1,2,3-triazol-4-yl)methyl)thiophene-2-carboxamide] showed an IC50 of at most 100 nM. `N=C(c1ccc(C2=NOC(CNC(=O)c3ccc(Cl)s3)C2)cc1)N1CCCCC1` (stereo not drawn) [Example 11, 5-Chloro-thiophene-2-carboxylic acid {3-[4-(imino-piperidin-1-yl-methyl)-phenyl]-4,5-dihydro-isoxazol-5-ylmethyl}-amide] gave an IC50 of 100 to 500 nM. With `CN1CCCN(c2ccc(-n3cc(CNC(=O)c4ccc(Cl)s4)nn3)cn2)CC1` [Example 383, 5-Chloro-N-((1-(6-(4-methyl-1,4-diazepan-1-yl)pyridin-3-yl)-1H-1,2,3-triazol-4-yl)methyl)thiophene-2-carboxamide] the IC50 was at most 100 nM. With `CN1CCCN(c2ccc(C3=NOC(CNC(=O)c4ccc(Cl)s4)C3)c(F)c2)CC1` (stereo not drawn) [Example 248, 5-Chloro-thiophene-2-carboxylic acid {3-[2-fluoro-4-(4-methyl-[1,4]diazepan-1-yl)-phenyl]-4,5-dihydro-isoxazol-5-ylmethyl}-amide] the IC50 was at most 100 nM. `O=C(NCC1CC(c2ccc(Nc3ccccn3)cc2)=NO1)c1ccc(Cl)s1` (stereo not drawn) [Example 224, 5-Chloro-thiophene-2-carboxylic acid {3-[4-(pyridin-2-ylamino)-phenyl]-4,5-dihydro-isoxazol-5-ylmethyl}-amide] was tested, and the IC50 was at least 500 nM. In the case of `CC(C)Oc1cc(C(=N)N(C)C)ccc1-c1cc(CNC(=O)c2ccc(Cl)s2)on1` [Example 126, 5-Chloro-thiophene-2-carboxylic acid {3-[4-(N,N-dimethyl-carbamimidoyl)-2-isopropoxy-phenyl]-isoxazol-5-ylmethyl}-amide], the IC50 is reported as at most 100 nM. `N=C(c1ccc(C2=NOC(CNC(=O)c3ccc(Cl)s3)C2)c(N2CCOCC2)c1)N1CCCCC1` (stereo not drawn) [Example 85, 5-Chloro-thiophene-2-carboxylic acid {3-[4-(imino-piperidin-1-yl-methyl)-2-morpholin-4-yl-phenyl]-4,5-dihydro-isoxazol-5-ylmethyl}-amide] gave an IC50 of 100 to 500 nM. `COc1ccc(CN2CCCC2)c(-c2ccc(C3=NOC(CNC(=O)c4ccc(Cl)s4)C3)cc2)c1` (stereo not drawn) [Example 203, 5-Chloro-thiophene-2-carboxylic acid [3-(5′-methoxy-2′-pyrrolidin-1-ylmethyl-biphenyl-4-yl)-4,5-dihydro-isoxazol-5-ylmethyl]-amide] was tested, and the IC50 was at most 100 nM. `Cc1ccc(C2=NOC(C)(CNC(=O)c3ccc(Cl)s3)C2)cc1` (stereo not drawn) [Example 148, 5-Chloro-thiophene-2-carboxylic acid (5-methyl-3-p-tolyl-4,5-dihydro-isoxazol-5-ylmethyl)-amide] was tested, and the IC50 was at least 500 nM. Work on `O=C(NCC1CC(c2ccc(-c3ccncc3)cc2)=NO1)c1ccc(Cl)s1` (stereo not drawn) [Example 191, 5-Chloro-thiophene-2-carboxylic acid [3-(4-pyridin-4-yl-phenyl)-4,5-dihydro-isoxazol-5-ylmethyl]-amide] yielded an IC50 of at least 500 nM. `N=C(c1ccc(-c2ccc(F)c(CNC(=O)c3ccc(Cl)s3)c2)cc1)N1CCCC1` [Example 376, 5-Chloro-N-((5-(4-(imino(pyrrolidin-1-yl)methyl)phenyl)-2-fluorophenyl)methyl)thiophene-2-carboxamide] was tested, and the IC50 was at most 100 nM. `CN(Cc1cc(-c2ccc(C(N3CCC3)=[N+]3CCC3)cc2)no1)C(=O)c1ccc(Cl)s1` [Example 41, 5-Chloro-thiophene-2-carboxylic acid {3-[4-(azetidin-1-yl-azetidin-1-ylidene-methyl)-phenyl]-isoxazol-5-ylmethyl}-methyl-amide] showed an IC50 of at least 500 nM. With `CC(O)CNC(=O)c1ccc(C2=NOC(CNC(=O)c3ccc(Cl)s3)C2)cc1` (stereo not drawn) [Example 399, N-((3-(4-((2-Hydroxypropyl)carbamoyl)phenyl)-4,5-dihydroisoxazol-5-yl)methyl)-5-chlorothiophene-2-carboxamide] the IC50 was at least 500 nM. `O=C(NCC1CC(c2ccc(Nc3ccncc3)cc2F)=NO1)c1ccc(Cl)s1` (stereo not drawn) [Example 247, 5-Chloro-thiophene-2-carboxylic acid {3-[2-fluoro-4-(pyridin-4-ylamino)-phenyl]-4,5-dihydro-isoxazol-5-ylmethyl}-amide] was tested, and the IC50 was at most 100 nM. Work on `C[C@H](NC(=O)c1ccc(Cl)s1)c1cc(-c2ccc(C(=N)N3CCCC3)cc2)no1` [Example 55, (S)-5-Chloro-thiophene-2-carboxylic acid (1-{3-[4-(imino-pyrrolidin-1-yl-methyl)-phenyl]-isoxazol-5-yl}-ethyl)-amide] yielded an IC50 of at least 500 nM. With `CN(Cc1ccco1)C(=N)c1ccc(-c2nc(CNC(=O)c3ccc(Cl)s3)cs2)cc1` [Example 356, N-((2-(4-(N-(Furan-2-ylmethyl)-N-methylcarbamimidoyl)phenyl)thiazol-4-yl)methyl)-5-chlorothiophene-2-carboxamide] the IC50 was at least 500 nM. For `CN(C)C(=N)c1ccc(C2=NOC(CNC(=O)c3ccc(Cl)s3)C2)c(N2CCCCCC2)c1` (stereo not drawn) [Example 90, 5-Chloro-thiophene-2-carboxylic acid {3-[2-azepan-1-yl-4-(N,N-dimethyl-carbamimidoyl)-phenyl]-4,5-dihydro-isoxazol-5-ylmethyl}-amide], the IC50 was 100 to 500 nM. For `COc1cc(C(=N)N2CCCC2)ccc1-c1cc(CNC(=O)c2ccc(Cl)s2)on1` [Example 120, 5-Chloro-thiophene-2-carboxylic acid {3-[4-(imino-pyrrolidin-1-yl-methyl)-2-methoxy-phenyl]-isoxazol-5-ylmethyl}-amide], the IC50 was at most 100 nM.
